# Data: EPA's ToxValDB 9.5 (doi:10.2903/j.efsa.2010.1558)
# Key:
# [1] = test system: Typhlodromus pyri; details: acute; duration: 14 days; reproduction
# [2] = test system: Lepomis macrochirus; details: acute; duration: 96 hours; mortality
# [3] = test system: Pimephales promelas; details: chronic/long-term; duration: 33 days; growth
# [4] = test system: Anas platyrhynchos; details: reproductive
# [5] = test system: Tagia sp.; details: acute; duration: 14 days; mortality
# [6] = test system: Daphnia magna; details: chronic/long-term; duration: 21 days; mobility
# [7] = test system: Apis mellifera; details: acute, duration: 48 hours, mortality
# [8] = test system: Canidae; details: chronic; duration: 1 years; oral; Dog Other; body weight
# [9] = test system: Rattus norvegicus; details: for NOAEL: reproduction developmental
# [10] = test system: Colinus virginianus; details: oral
smiles,measurement,setting,value
N#CC(CCc1ccc(Cl)cc1)(Cn1cncn1)c1ccccc1 (centres undefined),LEL,[1],63 g/ha
same,LC50,[2],0.68 µg/mL
same,NOEC,[3],0.023 mg/L
same,NOEC,[4],21 mg/kg-day
same,LC50,[5],> 100 mg/kg
same,NOEC,[6],0.078 mg/L
same,LD50,[7]; dermal,> 5.5 µg/piece
same,LD50,"[7]; oral, unspecified",> 5.2 µg/piece
same,NOAEL,[8],0.62 mg/kg-day
same,LD50,"[9]; acute, oral, mortality",> 5000 mg/kg-day
same,NOAEL,[9]; body weight,30 mg/kg-day
same,NOAEL,[9]; reproduction,5 mg/kg-day
same,LD50,"[10]; acute, mortality",> 2150 mg/kg-day
same,NOEL,"[10]; short-term, diet, food consumption",111 mg/kg-day
